In US20100062059A1, “S-Nitrosothiols Containing Composition for the Treatment of Fatty Liver Diseases, Obesity and Other Diseases Associated with the Metabolic Syndrome and the Use of Such Compositions” (PROTAGEN AKTIENGESELLSCHAFT, priority 2006, published 2010):

Key:
soy lipoxigenase (SLO) = assay: Linoleic acid (LA) peroxidation catalyzed by soy lipoxigenase, absorbance at 234 nm; format: biochemical
Description: This referred effect may be shown by the analysis of two kinetic parameters: initial velocity and extension of the peroxidation reaction until the chemical equilibrium is reached. Such parameters were analyzed by ultraviolet spectrophotometry and the kinetic curves (a′, b′, c′ and d′) were obtained from absorbance variation monitored though the band with peak at 234 nm at a preferential temperature of 37° C. This band value is characteristic for combined dienes and may, therefore, act as LA peroxidation marker. For this Example, the first curve (a′) refers to a sample of linoleic acid whose peroxidation was catalyzed by incubation with soy lipo-oxygenase at a preferential concentration of 0.056 μmol/L; the second curve (b′) refers to a sample of linoleic acid whose peroxidation was catalyzed by incubation of the linoleic acid with a mixture of soy lipo-oxygenase in the presence of NAC at a preferential concentration of 560 μmol/L; the third curve (c′) refers to a sample of linoleic acid whose peroxidation was catalyzed by incubation of soy Lipo-oxygenase in the presence of SNAC at a preferential concentration of 56 μmol/L; and the fourth curve (d′) refers to a sample of linoleic acid whose peroxidation was catalyzed by incubation of soy lipo-oxygenase in the presence of SNAC at a preferential concentration of 560 μmol/L. FIG. 3 illustrates the absorbance curves obtained for the groups of the present Example. The interpretation of the curves is given by the initial velocity, which corresponds to the inclination of the initial section of the curves within approximately 10 seconds, and the extension of the reaction, which corresponds to the absorbance values on the plateaus of the curves.

[1] = test system: Wistar rats with hepatic steatosis induced by a choline-deficient diet; assay: Hydroperoxide (LOOH) concentration in the liver of rats with diet-induced hepatic steatosis; format: in vivo; conditions: control group 3.2±0.4
Description: Wistar rats with hepatic steatosis induced by a choline-deficient diet were assigned to three groups to perform the tests with the administration of S-nitroso-N-acetylcysteine (SNAC), which is one of the active principles of the present invention, and to evaluate the concentration of hydroperoxides (LOOH) in the liver.
A first group of animals, group 1, was treated with a solution of S-nitroso-N-acetylcysteine, which was administrated orally to the animals at a dose of 1.4 mg/kg/day. A second group of animals, group 2, was treated with N-acetylcysteine (NAC), which was also administrated orally to the animals at a dose of 7.0 mg/kg/day.

[2] = test system: human low density lipoprotein (LDL); assay: CuCl2-catalyzed oxidation of LDL suspension, fluorescence spectrophotometry; format: biochemical; conditions: LDL 200 μg/mL, CuCl2 300 μmol/L, 15 hours, SNAC 300 μmol/L, pH 7.4
Description: For this example, approximately 15 mL of a human low density lipoprotein (LDL) suspension at a concentration of around 200 μg/mL, in phosphate buffer, pH 7.4, aerated PBS (in vitro) were previously prepared and initially divided into three parts. A first part (a) with approximately 5 mL consisting of the previously prepared suspension solely; a second part (b) with approximately 5 mL, consisting of the LDL suspension incubated in a CuCl2 solution at a preferential concentration of 300 μmol/L for a period of around 15 hours; and a third part (c) with approximately 5 mL, consisting of the LDL suspension incubated in a CuCl2 solution at a preferential concentration of 300 μmol/L for a period of around 15 hours, in the presence of SNAC at a preferential concentration of 300 μmol/L.
A sample of each part was submitted to fluorescence spectrophotometry. FIG. 2 features the emission spectrum for the analyzed samples. […] The 410- and 440-nm emission peaks in the LDL suspension fluorescence spectrum correspond to the formation of a Schiff base adduct between the lipid oxidation products contained in the LDL particles (mainly the malondialdehyde [MDA]) and the free amino groups on LDL apolipoprotein (mainly apo-B-100), and are known as LDL oxidation markers.

ob/ob mice = assay: Liver histology (hematoxylin and eosin) of ob/ob mice on MCD or hyperlipidemic diet; format: in vivo
Description: For the Example 4, ob/ob mice were selected. A first group of mice was fed a methionine/choline-deficient diet (Group MCD) and a second group of mice was fed a hyperlipidemic diet (Group H).
Animals were selected from both groups and hematoxylin and eosin-stained histological sections of the hepatic tissue of these animals were obtained and examined under optical microscopy.
Other animals selected from both groups of mice, Group MCD and Group H, were submitted to a 30-day treatment consisting of SNAC administration. After the 30th day, hematoxylin and eosin-stained histological sections of the hepatic tissue of these animals were obtained and examined under optical microscopy.
The remaining animals in Groups H and MCD were maintained on these diets up the 60th day and were put on SNAC administration from the 31st day on. After the 60th day of treatment, hematoxylin and eosin-stained histological sections of the hepatic tissue of these animals were obtained and examined under optical microscopy.

[3] = test system: Rats fed a choline-deficient diet; assay: Liver histology (hematoxylin and eosin) of rats fed a choline-deficient diet; format: in vivo; conditions: control: moderate macrovacuolar and microvacuolar steatosis in the periportal zone
Description: Rats fed a choline-deficient diet were selected to compose the Control Group when compared to SNAC-treated rats. Hematoxylin and eosin-stained histological sections of hepatic tissue were examined under optical microscopy, as shown on FIGS. 5A and 5B.

[4] = Body mass variation of animals on MCD or hyperlipidemic diet; format: in vivo; conditions: SNAC by gavage, four weeks
Description: Data are expressed as means±standard deviation.

[5] = NAC 560 μmol/L, LA 18.76 μmol/L, SLO 0.056 μmol/L, 37° C., curve b′
[6] = SNAC 56 μmol/L, reduction compared with NAC 560 μmol/L, curve c′

extension of the LA peroxidation reaction (soy lipoxigenase (SLO); [5])	initial velocity of the LA peroxidation reaction (soy lipoxigenase (SLO); [5])	extension of the LA peroxidation reaction (soy lipoxigenase (SLO); [6])	initial velocity of the LA peroxidation reaction (soy lipoxigenase (SLO); [6])	SMILES	hydroperoxide concentration in the liver ([1]; group 2, oral, 7.0 mg/kg/day) [nmol/g protein]	410 and 440 nm emission peaks (LDL oxidation markers) [2]	extension of the LA peroxidation reaction (soy lipoxigenase (SLO); SNAC 560 μmol/L, curve d′)	initial velocity of the LA peroxidation reaction (soy lipoxigenase (SLO); SNAC 560 μmol/L, curve d′)	hydroperoxide concentration in the liver ([1]; group 1, oral, 1.4 mg/kg/day) [nmol/g protein]	histological characteristics of the liver (ob/ob mice; Group H, diet concomitantly with 30-day SNAC administration)	histological characteristics of the liver (ob/ob mice; Group H, diet to 60th day, SNAC from the 31st to the 60th day)	histological characteristics of the liver (ob/ob mice; Group MCD, diet concomitantly with 30-day SNAC administration)	histological characteristics of the liver (ob/ob mice; Group MCD, diet to 60th day, SNAC from the 31st to the 60th day)	histological characteristics of hepatic tissue [3]	body mass increase ([4]; group H (untreated 28% increase))	body mass increase ([4]; group MCD)
reduced the extension	reduced the extension and velocity	–	–	CC(=O)N[C@@H](CS)C(=O)O [NAC, N-acetylcysteine, reference compound]	0.7±0.2	–	–	–	–	–	–	–	–	–	–	–
–	–	reduction is more accentuated	reduction is more accentuated	CC(=O)N[C@@H](CSN=O)C(=O)O [SNAC, S-nitroso-N-acetylcysteine]	–	blockage of the increase of 410 and 440 nm peaks	reduction is considerably much pronounced	reduction is considerably much pronounced	0.3±0.1	consistent with normal livers	consistent with those of normal livers	consistent with normal livers	consistent with those of normal livers	normal liver in the periportal zone	remarkable reduction of body mass increase	practically eliminated the body mass increase
